From patent US20240343760A1, “PEPTIDES FOR CELL-TYPE SPECIFIC TARGETING OF THE RETINA” (Oregon State University, priority 2021, published 2024)
“Also recorded” adds a separate entry of the source. Read-outs that look alike come from different tables or passages of the source. Ends that are not written are not given here. TAMRA = 5-(and -6)-carboxytetramethylrhodamine fluorophore, conjugated to the side chain of the C-terminal Cys

Legend:
661w cone cells [1] = assay: Cell ELISA of phage-displayed peptides on 661w cone cells; assay type: cell-based, mouse; details: for binding affinity (OD450) 661w cone cells compared to hARPE19 cells: ratio 661w / hARPE19; for binding to 661w cone cells (cell ELISA, OD450): vs empty bacteriophage control
Experimental: (§1) ARPE19 and 661w cells were seeded a day before the experiment on 96 well plates (10^4 cells/well). On day of experiment, cells were first fixed in 4% paraformaldehyde solution at room temperature for 15 minutes. This was followed by three washes with PBS and then the cells were blocked for 30 minutes at room temperature with 1% BSA in PBS. […] The wells were then washed with 0.1% TBST and individual phage clones were incubated for one hour at room temperature in blocking buffer with gentle rocking. After phage incubation, wells were washed three times with 0.1% TBST to reduce non-specific binding and eliminate weakly bound phages. Biotin-conjugated, mouse anti-M13 phage coat protein primary antibody was added (Thermo Fisher cat. #MA1-34468) at 1:5000 dilution in 0.1% TBST and incubated for 1 hour at room temperature with gentle rocking. The wells were washed three more times with 0.1% TBST and subsequently incubated with poly-HRP streptavidin secondary antibody (Thermo Fisher cat. #N200) at 1:10000 dilution in 0.1% TBST for 1 hour at room temperature. Wells were then washed three times with 0.1% TBST and 3,3′,5,5′-Tetramethylbenzidine (Thermo Fisher) was added to the wells and incubated at room temperature for 5-10 minutes and the reaction was stopped with 0.2 M Sulfuric Acid and absorbance was read at 450 nm using TECAN Infinite200 Pro spectrophotometer (Tecan Group Ltd., Switzerland).
(§2) After identifying 30 novel peptide sequences, top-performing candidates were identified that could target LNPs to the neural retina. Since bacteriophages were eluted from the entire neural retina, the candidates were pre-screened for their ability to bind to the cell of interest, the PRs. Single bacteriophage-peptides were amplified in E. coli, and a cell-based enzyme-linked immunosorbent assay (ELISA) was developed against the 661w mouse cone PR cell line and the hARPE19 cell line as a control. As expected, for most of the bacteriophage-peptide candidates, binding affinities were weaker when tested against RPE cells compared to 661w cone cells. […] However, the binding affinity, as measured by OD450, was close to 2-fold higher when binding to 661w cone cells compared to hARPE19 cells.

hARPE19 cells = assay: Cell ELISA of phage-displayed peptides on hARPE19 cells; assay type: cell-based; details: vs empty bacteriophage control
Experimental: as §1, §2

[2] = test system: PR and RPE/choroid layers; assay: In vivo validation with TAMRA-labelled peptides, intravitreal or subretinal injection
Experimental: (§3) For subretinal injections, mice were topically administered 0.5% proparacaine, 1% tropicamide, and 2.5% phenylephrine and anesthetized with ketamine (100 mg/kg)/xylazine (10 mg/kg). To initiate the injection, 2.5% hypromellose was used to cover the eye and a 30-gauge needle was used to make an incision in the limbus. A glass coverslip was then placed over the eye to allow for visualization of the retina. Going through the scleral incision in the limbus, using a Hamilton syringe with a 33-gauge blunt needle, 1 μL PBS, peptide, or LNP-Cre were delivered to the subretinal space. A 2% fluorescein solution was added to the PBS and LNPs so retinal detachment could be confirmed. For most injections, scleral incisions in the limbus were created nasally and PBS or LNPs were delivered temporally. Intravitreal injections were performed as previously described elsewhere (25). […] For intravitreal injections 1.1 μg (1.5 μL, 741 ng/μL) was injected.
(§4) At specified time points, mouse eyes were enucleated and fixed using 4% paraformaldehyde in PBS overnight at 4° C. Eyes were cryopreserved in 30% sucrose solution for 2 hours prior to embedding in OCT media followed by cryo-sectioning and confocal imaging. Retinal cryo-sections were 12 μm thick and DAPI stained prior to confocal imaging done using TCS SP8 X (Leica Microsystems, Buffalo Grove, IL). Z-stacks (spanned 10 μm with 1 μm interval) were collected using a 40× objective, and maximum intensity projections were used for further analysis.
(§5) All confocal imaging was performed using TCS SP8 X (Leica Microsystems, Buffalo Grove, IL). Z-stacks (spanned 10 μm with 1 μm interval) were collected using a 20× or 40× objective, and maximum intensity projections were used for further analysis.
(§6) For TAMRA quantification from peptide injections, region of interest (ROI) were created for RPE/choroid and PR cell layer for mean fluorescent intensity values. Fold change measurements were compared to TAMRA-only controls. An ordinary one-way ANOVA, with Tukey's correction for multiple comparisons test was used for comparisons between groups (Prism 8 software, GraphPad Software, La Jolla, CA). Data are presented as mean±SEM. A p-value <0.05 was considered as statistically significant.

661w cone cells [3] = assay: Cell internalization of TAMRA-labeled peptides, 661w cone cells; assay type: cell-based, mouse; details: 661w cells, TAMRA-conjugated peptide, 30 minutes
Experimental: Approximately 50,000 cells were seeded per well of 8-well μ-Slide (Ibidi, Fitchburg, WI) and incubated with 10 nM and 50 nM TAMRA-labeled peptides for 30 minutes at 37° C. followed by washing with PBS, fixation in 4% Paraformaldehyde for 10 mins at room temperature. Cells were then washed three times, DAPI stained and cover slipped for confocal microscopy imaging. Fluorescence confocal images of cell internalization studies were captured with the same exposure settings and were analyzed for fluorescence intensity using ImageJ (version 1.45; National Institutes of Health, Bethesda, MD). First, the hARPE or 661w cells were outlined and ImageJ calculated the pixel intensity of the different cell treatments with different peptides. At least three images were analyzed for each peptide tested.
TAMRA-conjugated peptides were added to hARPE19 and 661w cells at a 10 nM and 50 nM concentration to evaluate their internalization (FIGS. 2E to 2H and 8A to 8B). After 30 minutes of incubation at 37° C., cells were fixed and DAPI stained for confocal imaging.

[4] = test system: PR and RPE/choroid layers; details: mouse, in vivo
Experimental: as §3, §4, §5, §6

Substance | binding affinity (OD450) 661w cone cells compared to hARPE19 cells (661w cone cells [1]) [fold] | binding to 661w cone cells (cell ELISA, OD450) (661w cone cells [1]) | binding to hARPE19 (RPE) cells (cell ELISA, OD450) (hARPE19 cells) | further results
ATGPRSV [Peptide 57] | ~2 | high binding | highest affinity | binding to hARPE19 (RPE) cells (cell ELISA, OD450) (hARPE19 cells; listed as MH57): significantly higher binding
DGPPRKP [Peptide 3] | – | – | highest affinity | –
DGPPRKPGGGSC (DGPPRKPGGGSC(TAMRA); not fully specified) [MH3] | – | reduced binding affinity; also recorded: low-binder | significantly higher binding | retinal localization of TAMRA-labelled peptide (confocal) [2]: poor accumulation in RPE and PRs
HLSSLTP [Peptide 54] | – | highest affinity | highest affinity | binding to hARPE19 (RPE) cells (cell ELISA, OD450) (hARPE19 cells; listed as MH54): significantly higher binding
LAFHRMP [Peptide 52] | ~2 | highest affinity | highest affinity | binding to 661w cone cells (cell ELISA, OD450) (661w cone cells [1]; listed as MH52): high binding; binding to hARPE19 (RPE) cells (cell ELISA, OD450) (hARPE19 cells; listed as MH52): significantly higher binding
MPVAVYR [Peptide 50] | – | highest affinity | highest affinity | –
MPVAVYRGGGSC (MPVAVYRGGGSC(TAMRA)) [MH50] | ~2 | high binding; also recorded: high-binders; also recorded: top 2 performing | significantly higher binding | cellular uptake compared to the negative control MH3 (661w cone cells [3]): 4.1 fold; retinal localization of TAMRA-labelled peptide (confocal) [4]: localized to PRs including the outer nuclear layer and inner/outer segments as well as RPE
SNLAAFP [Peptide 43] | – | highest affinity | – | –
SNLAAFPGGGSC (SNLAAFPGGGSC(TAMRA)) [MH43, peptide 43 with added linker; TAMRA-labelled at carboxy-terminal Cys in cell and in vivo tests] | – | high-binders | – | –
SPALHFL [Peptide 42] | – | highest affinity | – | –
SPALHFLGGGSC (SPALHFLGGGSC(TAMRA)) [MH42] | ~2 | high binding; also recorded: high-binders; also recorded: top 2 performing | significantly higher binding | cellular uptake compared to the negative control MH3 (661w cone cells [3]): 1.7 fold; clearance of labelled peptide from retina [4]: ≤ 24 h; retinal localization of TAMRA-labelled peptide (confocal) [4]: localized to PRs including the outer nuclear layer and inner/outer segments as well as RPE; timepoint of maximum level of labelled peptide in retina [4]: 6 h
